Data published in ChEMBL document CHEMBL4184210, “Optimization of novel monobactams with activity against carbapenem-resistant Enterobacteriaceae - Identification of LYS228” (Bioorg Med Chem Lett, 2018).
Converted amounts (≈) assume the structure as drawn.

Experiments:
[1] = system: Escherichia coli; experiment: microbe, parasite or virus in culture
Description: Antimicrobial activity against Escherichia coli expressing beta-lactamase CTXM-15 by CLSI broth microdilution method

[2] = system: Escherichia coli; experiment: microbe, parasite or virus in culture; remark: listed apart in the source
Description: Antimicrobial activity against Escherichia coli expressing beta-lactamase TEM-10 by CLSI broth microdilution method

[3] = system: Escherichia coli; experiment: microbe, parasite or virus in culture; remark: listed apart in the source
Description: Antimicrobial activity against wild type Escherichia coli by CLSI broth microdilution method

[4] = system: Escherichia coli; experiment: Antimicrobial activity against Escherichia coli expressing beta-lactamase KPC-2 by CLSI broth microdilution method; assay type: functional
[5] = system: Escherichia coli; experiment: microbe, parasite or virus in culture; remark: listed apart in the source
Description: Antimicrobial activity against Escherichia coli expressing beta-lactamase SHV-12 by CLSI broth microdilution method

[6] = system: Escherichia coli; experiment: microbe, parasite or virus in culture; remark: listed apart in the source
Description: Antimicrobial activity against Escherichia coli expressing beta-lactamase AmpC by CLSI broth microdilution method

[7] = system: Escherichia coli; experiment: microbe, parasite or virus in culture; remark: listed apart in the source
Description: Antimicrobial activity against Escherichia coli expressing beta-lactamase CMY-2 by CLSI broth microdilution method

[8] = system: Escherichia coli; experiment: Antimicrobial activity against Escherichia coli expressing beta-lactamase NDM-1 by CLSI broth microdilution method; assay type: functional
[9] = Chemical stability in pH 7.4 potassium phosphate buffer assessed as half life for compound hydrolysis at 37 degC by UPLC and mass spectrometry; assay type: physicochemical

| Structure (SMILES) | MIC [1] | MIC [2] | MIC [3] | MIC [4] | MIC [5] | MIC [6] | MIC [7] | MIC [8] | half-life [9] |
| --- | --- | --- | --- | --- | --- | --- | --- | --- | --- |
| C[C@@H](O/N=C(\C(=O)N[C@@H]1C(=O)N(S(=O)(=O)O)[C@@H]1Cn1cncn1)c1csc(N)n1)C(=O)O (stereo in doubt) | 0.5 µg/mL (≈ 1.02 µM) | 1 µg/mL (≈ 2.05 µM) | 1 µg/mL (≈ 2.05 µM) | 1 µg/mL (≈ 2.05 µM) | 2 µg/mL (≈ 4.09 µM) | 4 µg/mL (≈ 8.19 µM) | 16 µg/mL (≈ 32.8 µM) |  |  |
| CC(C)(O/N=C(\C(=O)N[C@@H]1C(=O)N(S(=O)(=O)O)[C@@H]1CN1CCNC1=O)c1csc(N)n1)C(=O)O (stereo in doubt) | 1 µg/mL (≈ 1.92 µM) | 4 µg/mL (≈ 7.7 µM) | 0.5 µg/mL (≈ 0.962 µM) | 1 µg/mL (≈ 1.92 µM) | 1 µg/mL (≈ 1.92 µM) | 2 µg/mL (≈ 3.85 µM) |  | 1 µg/mL (≈ 1.92 µM) | > 60000 min |
| CC(C)(O/N=C(\C(=O)N[C@@H]1C(=O)N(S(=O)(=O)O)[C@@H]1Cn1cc(CO)nn1)c1csc(N)n1)C(=O)O (stereo in doubt) | 1 µg/mL (≈ 1.88 µM) | 8 µg/mL (≈ 15 µM) | 0.5 µg/mL (≈ 0.939 µM) | 4 µg/mL (≈ 7.51 µM) | 16 µg/mL (≈ 30 µM) | 4 µg/mL (≈ 7.51 µM) | 4 µg/mL (≈ 7.51 µM) |  | > 2220 min |
| CC(C)(O/N=C(\C(=O)N[C@@H]1C(=O)N(S(=O)(=O)O)[C@@H]1Cn1cc(CNC(=N)N)nn1)c1csc(N)n1)C(=O)O (stereo in doubt) | 0.25 µg/mL (≈ 0.436 µM) | 1 µg/mL (≈ 1.74 µM) | 0.25 µg/mL (≈ 0.436 µM) | 0.5 µg/mL (≈ 0.872 µM) | 1 µg/mL (≈ 1.74 µM) | 1 µg/mL (≈ 1.74 µM) | 0.5 µg/mL (≈ 0.872 µM) |  | > 2220 min |
| CC(C)(O/N=C(\C(=O)N[C@@H]1C(=O)N(S(=O)(=O)O)[C@@H]1Cn1ccc(N)n1)c1csc(N)n1)C(=O)O (stereo in doubt) | > 64 µg/mL | > 64 µg/mL | > 64 µg/mL | > 64 µg/mL | > 64 µg/mL | > 64 µg/mL |  | > 64 µg/mL | 210 min |
| Cc1ncnn1C[C@@H]1[C@H](NC(=O)/C(=N\OC(C)(C)C(=O)O)c2csc(N)n2)C(=O)N1S(=O)(=O)O (stereo in doubt) | 4 µg/mL (≈ 7.74 µM) | 8 µg/mL (≈ 15.5 µM) | 4 µg/mL (≈ 7.74 µM) | 2 µg/mL (≈ 3.87 µM) | 4 µg/mL (≈ 7.74 µM) | 8 µg/mL (≈ 15.5 µM) | 8 µg/mL (≈ 15.5 µM) |  | > 2220 min |
| CC(C)(O/N=C(\C(=O)N[C@@H]1C(=O)N(S(=O)(=O)O)[C@@H]1CN1C[C@H](CO)OC1=O)c1csc(N)n1)C(=O)O (stereo in doubt) | 1 µg/mL (≈ 1.82 µM) | > 64 µg/mL | 2 µg/mL (≈ 3.63 µM) | 4 µg/mL (≈ 7.27 µM) | 2 µg/mL (≈ 3.63 µM) | 2 µg/mL (≈ 3.63 µM) | 4 µg/mL (≈ 7.27 µM) |  | > 2220 min |
| Nc1nc(/C(=N/OC2(C(=O)O)CC2)C(=O)N[C@@H]2C(=O)N(S(=O)(=O)O)[C@@H]2Cn2cncn2)cs1 (stereo in doubt) | 0.125 µg/mL (≈ 0.25 µM) | 0.5 µg/mL (≈ 0.999 µM) | 0.125 µg/mL (≈ 0.25 µM) | 0.25 µg/mL (≈ 0.5 µM) | 1 µg/mL (≈ 2 µM) | 1 µg/mL (≈ 2 µM) | 1 µg/mL (≈ 2 µM) |  |  |
| CC(C)(O/N=C(\C(=O)N[C@@H]1C(=O)N(S(=O)(=O)O)[C@@H]1Cn1cc(CCN)nn1)c1csc(N)n1)C(=O)O (stereo in doubt) | 1 µg/mL (≈ 1.83 µM) | 2 µg/mL (≈ 3.67 µM) | 1 µg/mL (≈ 1.83 µM) | 2 µg/mL (≈ 3.67 µM) | 4 µg/mL (≈ 7.33 µM) | 2 µg/mL (≈ 3.67 µM) | 4 µg/mL (≈ 7.33 µM) |  | > 2220 min |

More lines, now with the values ahead:

| MIC [1] | MIC [2] | MIC [3] | MIC [4] | MIC [5] | MIC [6] | MIC [7] | MIC [8] | half-life [9] | Structure (SMILES) |
| --- | --- | --- | --- | --- | --- | --- | --- | --- | --- |
| 1 µg/mL (≈ 1.88 µM) | 2 µg/mL (≈ 3.76 µM) | 1 µg/mL (≈ 1.88 µM) | 2 µg/mL (≈ 3.76 µM) | 4 µg/mL (≈ 7.53 µM) | 1 µg/mL (≈ 1.88 µM) | 1 µg/mL (≈ 1.88 µM) |  | > 2220 min | CC(C)(O/N=C(\C(=O)N[C@@H]1C(=O)N(S(=O)(=O)O)[C@@H]1Cn1cc(CN)nn1)c1csc(N)n1)C(=O)O (stereo in doubt) |
| 2 µg/mL | 8 µg/mL | 1 µg/mL | 2 µg/mL | 8 µg/mL | 2 µg/mL | 8 µg/mL |  | > 2220 min | CC(C)(O/N=C(\C(=O)N[C@@H]1C(=O)N(S(=O)(=O)O)[C@@H]1Cn1cc(NC(=O)C[N+](C)(C)C)nn1)c1csc(N)n1)C(=O)O |
| 2 µg/mL (≈ 3.76 µM) | 4 µg/mL (≈ 7.53 µM) | 2 µg/mL (≈ 3.76 µM) | 4 µg/mL (≈ 7.53 µM) | 4 µg/mL (≈ 7.53 µM) | 8 µg/mL (≈ 15.1 µM) | 8 µg/mL (≈ 15.1 µM) |  | > 2220 min | CC(C)(O/N=C(\C(=O)N[C@@H]1C(=O)N(S(=O)(=O)O)[C@@H]1Cn1ncnc1CN)c1csc(N)n1)C(=O)O (stereo in doubt) |
|  |  |  |  |  |  |  |  | 2760 min | C[C@@H](O)[C@H]1C(=O)N2C(C(=O)O)=C(SCCN=CN)C[C@H]12 [IMIPENEM ANHYDROUS] |
| 8 µg/mL (≈ 13.5 µM) | > 64 µg/mL | 8 µg/mL (≈ 13.5 µM) | 16 µg/mL (≈ 27 µM) | 16 µg/mL (≈ 27 µM) | 16 µg/mL (≈ 27 µM) | 32 µg/mL (≈ 54.1 µM) |  | > 2220 min | CC(C)(O/N=C(\C(=O)N[C@@H]1C(=O)N(S(=O)(=O)O)[C@@H]1CN1C[C@H](CNC(=N)N)OC1=O)c1csc(N)n1)C(=O)O (stereo in doubt) |
| 0.125 µg/mL (≈ 0.256 µM) | 4 µg/mL (≈ 8.19 µM) | 0.125 µg/mL (≈ 0.256 µM) | 1 µg/mL (≈ 2.05 µM) | 4 µg/mL (≈ 8.19 µM) | 2 µg/mL (≈ 4.09 µM) | 8 µg/mL (≈ 16.4 µM) |  |  | C[C@H](O/N=C(\C(=O)N[C@@H]1C(=O)N(S(=O)(=O)O)[C@@H]1Cn1cncn1)c1csc(N)n1)C(=O)O (stereo in doubt) |
